Measurements taken from patent US9309198B2, “N-[3-(2-carboxyethyl)phenyl]piperidin-1-ylacetamide derivatives and use thereof as activators of soluble guanylate cyclase” (Bayer Pharma Aktiengesellschaft, priority 2012, dated 2016).
Where a name gives a salt, the structure may show the parent alone.

Biological target: T1, recombinant guanylate cyclase reporter cell line (sGC, CHO reporter cell) (Rattus norvegicus, UniProt P20595)
T1 construct: expressed in transfected cells; host or cells: CHO reporter cell line
T1 sequence (P20595 1-619): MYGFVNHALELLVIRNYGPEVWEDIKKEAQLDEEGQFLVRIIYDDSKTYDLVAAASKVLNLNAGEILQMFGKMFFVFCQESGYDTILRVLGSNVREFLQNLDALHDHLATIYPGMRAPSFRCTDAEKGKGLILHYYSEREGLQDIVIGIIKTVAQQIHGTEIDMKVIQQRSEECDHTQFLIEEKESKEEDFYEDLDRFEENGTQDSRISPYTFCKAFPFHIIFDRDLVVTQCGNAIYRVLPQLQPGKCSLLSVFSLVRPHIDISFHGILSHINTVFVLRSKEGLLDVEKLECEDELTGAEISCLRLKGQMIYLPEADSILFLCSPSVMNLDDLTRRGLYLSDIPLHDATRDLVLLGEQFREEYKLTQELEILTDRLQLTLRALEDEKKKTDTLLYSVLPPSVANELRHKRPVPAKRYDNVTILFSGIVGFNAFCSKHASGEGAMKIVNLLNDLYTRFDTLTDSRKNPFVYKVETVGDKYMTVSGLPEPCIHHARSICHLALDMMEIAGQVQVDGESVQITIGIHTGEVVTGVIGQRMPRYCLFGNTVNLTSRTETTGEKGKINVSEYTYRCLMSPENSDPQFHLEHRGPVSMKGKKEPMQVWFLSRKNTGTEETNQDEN
T1 sequence (P19686 1-690 partner): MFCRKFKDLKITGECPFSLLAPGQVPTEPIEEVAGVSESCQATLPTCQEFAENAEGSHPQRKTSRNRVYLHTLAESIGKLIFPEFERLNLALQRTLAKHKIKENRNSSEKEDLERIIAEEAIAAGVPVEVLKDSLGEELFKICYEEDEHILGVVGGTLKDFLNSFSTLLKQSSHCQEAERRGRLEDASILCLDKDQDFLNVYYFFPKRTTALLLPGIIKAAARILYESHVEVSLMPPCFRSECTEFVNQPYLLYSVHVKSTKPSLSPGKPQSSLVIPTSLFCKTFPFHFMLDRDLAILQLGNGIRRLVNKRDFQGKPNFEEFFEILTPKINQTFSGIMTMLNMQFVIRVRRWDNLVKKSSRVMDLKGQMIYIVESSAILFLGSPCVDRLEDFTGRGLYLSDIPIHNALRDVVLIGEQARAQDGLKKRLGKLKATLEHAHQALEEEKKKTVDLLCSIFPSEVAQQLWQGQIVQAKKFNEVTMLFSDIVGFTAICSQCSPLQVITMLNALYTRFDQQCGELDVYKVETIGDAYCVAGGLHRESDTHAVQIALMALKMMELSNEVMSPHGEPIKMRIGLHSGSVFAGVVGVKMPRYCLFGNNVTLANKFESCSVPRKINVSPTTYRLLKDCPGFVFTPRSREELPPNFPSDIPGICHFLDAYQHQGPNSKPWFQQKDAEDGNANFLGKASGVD
Experiment: Effect on a recombinant guanylate cyclase reporter cell line (CHO reporter cell)
Assay type: cell-based
Experimental: B-2. Effect on a Recombinant Guanylate Cyclase Reporter Cell Line The cellular activity of the compounds according to the invention is determined using a recombinant guanylate cyclase reporter cell line, as described in F. Wunder et al., Anal. Biochem. 339, 104-112 (2005).

Row | Structure (SMILES) | MEC (minimum effective concentration), sGC-activating activity in the CHO reporter cell in vitro [nM]
1 | CC1CCN(C(C(=O)Nc2cc(CCC(=O)O)ccc2Cl)C(C)C(F)(F)F)CC1 (racemic) [Example 1, 3-(4-Chloro-3-{[4,4,4-trifluoro-3-methyl-2-(4-methylpiperidin-1-yl)butanoyl]amino}phenyl)propanoic acid] | 20
2 | CC(C(C(=O)Nc1cc(CC2(C(=O)O)CC2)ccc1F)N1CCCCC1)C(F)(F)F (single isomer, unassigned) [Example 2, 1-(4-fluoro-3-{[4,4,4-trifluoro-3-methyl-2-(piperidin-1-yl)butanoyl]amino}benzyl)cyclopropanecarboxylic acid] | 20
3 | CC1CCN(C(C(=O)Nc2cc(CC3(C(=O)O)CC3)ccc2F)C(C)C(F)(F)F)CC1 (single isomer, unassigned) [Example 4, 1-(4-fluoro-3-{[4,4,4-trifluoro-3-methyl-2-(4-methylpiperidin-1-yl)butanoyl]amino}benzyl)cyclopropanecarboxylic acid] | 5
4 | CC1CCN(C(C(=O)Nc2cc(CCC(=O)O)ccc2F)C(C)C(F)(F)F)CC1 (single isomer, unassigned) [Example 6, 3-(4-fluoro-3-{[4,4,4-trifluoro-3-methyl-2-(4-methylpiperidin-1-yl)butanoyl]amino}phenyl)propanoic acid] | 60
5 | CCC1CCN(C(C(=O)Nc2cc(CCC(=O)O)ccc2F)C(C)C(F)(F)F)CC1 (single isomer, unassigned) [Example 9, 3-(3-{[2-(4-ethylpiperidin-1-yl)-4,4,4-trifluoro-3-methylbutanoyl]amino}-4-fluorophenyl)propanoic acid] | 10
6 | CC1CCN(C(C(=O)Nc2cc(CCC(=O)O)ccc2Cl)C(C)C(F)(F)F)CC1 (single isomer, unassigned) [Example 13, 3-(4-chloro-3-{[4,4,4-trifluoro-3-methyl-2-(4-methylpiperidin-1-yl)butanoyl]amino}phenyl)propanoic acid] | 30
7 | CC(C(C(=O)Nc1cc(CC2(C(=O)O)CC2)ccc1F)N1CCCCC1)C(F)(F)F (stereo not drawn) [Example 3] | 60
8 | CC1CCN(C(C(=O)Nc2cc(CCC(=O)O)ccc2F)C(C)C(F)(F)F)CC1 (stereo not drawn) [Example 5] | 30
9 | CC1CCN([C@@H](C(=O)Nc2cc(CCC(=O)O)ccc2F)[C@@H](C)C(F)(F)F)CC1 [Example 7] | 60
10 | CCC1CCN(C(C(=O)Nc2cc(CCC(=O)O)ccc2F)C(C)C(F)(F)F)CC1 (stereo not drawn) [Example 10] | 30
11 | CCC1CCN(C(C(=O)Nc2cc(CCC(=O)O)ccc2Cl)C(C)C(F)(F)F)CC1 (stereo not drawn) [Example 12] | 30
12 | CC(C(C(=O)Nc1cc(CCC(=O)O)ccc1Cl)N1CCC(C(F)(F)F)CC1)C(F)(F)F (stereo not drawn) [Example 14] | 30
13 | CC(C(C(=O)Nc1cc(CCC(=O)O)ccc1F)N1CCC2(CC1)CC2)C(F)(F)F (stereo not drawn) [Example 15] | 10
14 | C[C@H]([C@H](C(=O)Nc1cc(CCC(=O)O)ccc1F)N1CCC2(CC1)CC2)C(F)(F)F [Example 16] | 50
15 | C[C@H]([C@H](C(=O)Nc1cc(CCC(=O)O)ccc1Cl)N1CCC(C(F)(F)F)CC1)C(F)(F)F [Example 17] | 3
16 | C[C@H]([C@H](C(=O)Nc1cc(CCC(=O)O)ccc1Cl)N1CCC2(CC1)CC2)C(F)(F)F [Example 19] | 3
17 | C[C@H]([C@H](C(=O)Nc1cc(CCC(=O)O)ccc1F)N1CCC(c2ccccc2)CC1)C(F)(F)F [Example 22] | 300
18 | C[C@H]([C@H](C(=O)Nc1cc([C@@H](C)CC(=O)O)ccc1Cl)N1CCC(C(F)(F)F)CC1)C(F)(F)F [Example 23] | 3

The next lines start with the values.

Row | MEC (minimum effective concentration), sGC-activating activity in the CHO reporter cell in vitro [nM] | Structure (SMILES)
19 | 3000 | COC1CCN(C(C(=O)Nc2cc(CC3(C(=O)O)CC3)ccc2F)C2CCCC2)CC1 (racemic) [Example 52, rac-1-(3-{[Cyclopentyl(4-methoxypiperidin-1-yl)acetyl]amino}-4-fluorobenzyl)cyclopropanecarboxylic acid trifluoroacetate]
20 | 300 | CCC1CCN([C@H](C(=O)Nc2cc(CC3(C(=O)O)CC3)ccc2F)[C@H](C)C(F)(F)F)CC1 (single isomer, unassigned) [Example 38]
21 | 1000 | CCC1CCN([C@H](C(=O)Nc2cc(CCC(=O)O)ccc2F)[C@H](C)C(F)(F)F)CC1 (single isomer, unassigned) [Example 40]
22 | 10 | CCC1CCN([C@@H](C(=O)Nc2cc(CCC(=O)O)ccc2F)[C@@H](C)C(F)(F)F)CC1 (single isomer, unassigned) [Example 41]
23 | 300 | CC1CCN([C@H](C(=O)Nc2cc(CCC(=O)O)ccc2Cl)[C@H](C)C(F)(F)F)CC1 (single isomer, unassigned) [Example 42]
24 | 10 | CC1CCN([C@@H](C(=O)Nc2cc(CCC(=O)O)ccc2Cl)[C@@H](C)C(F)(F)F)CC1 (single isomer, unassigned) [Example 43]
25 | 1000 | CCC1CCN([C@H](C(=O)Nc2cc(CCC(=O)O)ccc2Cl)[C@H](C)C(F)(F)F)CC1 (single isomer, unassigned) [Example 44]
26 | 3 | CCC1CCN([C@@H](C(=O)Nc2cc(CCC(=O)O)ccc2Cl)[C@@H](C)C(F)(F)F)CC1 (single isomer, unassigned) [Example 45]
27 | 3 | CC1CCN([C@@H](C(=O)Nc2cc([C@@H](C)CC(=O)O)ccc2Cl)[C@@H](C)C(F)(F)F)CC1 (single isomer, unassigned) [Example 49]
28 | 10 | C[C@H]([C@H](C(=O)Nc1cc([C@@H](C)CC(=O)O)ccc1Cl)N1CCC2(CC1)CC2)C(F)(F)F (single isomer, unassigned) [Example 50]
29 | 30 | CC(C(C(=O)Nc1cc(CC2(C(=O)O)CC2)ccc1F)N1CCCCC1)C(F)(F)F (single isomer, unassigned; (+)) [Example 35, (+)-1-(4-Fluoro-3-{[4,4,4-trifluoro-3-methyl-2-(piperidin-1-yl)butanoyl]amino}benzyl)cyclopropanecarboxylic acid]
30 | 200 | CC1CCN(C(C(=O)Nc2cc(CCC(=O)O)ccc2F)C(C)C(F)(F)F)CC1.O=C(O)C(F)(F)F (single isomer, unassigned; (+)) [Example 37, (+)-3-(4-Fluoro-3-{[4,4,4-trifluoro-3-methyl-2-(4-methylpiperidin-1-yl)butanoyl]amino}phenyl)propanoic acid trifluoroacetate]
31 | 100 | C[C@H]([C@H](C(=O)Nc1cc(CCC(=O)O)ccc1F)N1CCC(C(F)(F)F)CC1)C(F)(F)F [Example 24]
32 | 20 | C[C@H]([C@H](C(=O)Nc1cc(C[C@H](C)C(=O)O)ccc1F)N1CCC2(CC1)CC2)C(F)(F)F [Example 28]
33 | 30 | C[C@H](Cc1ccc(Cl)c(NC(=O)[C@@H]([C@@H](C)C(F)(F)F)N2CCC3(CC2)CC3)c1)C(=O)O [Example 29]
